“And” between values parts separate entries of the source, which are not always exact repeats. Equal values may be shown once. Records with an inconclusive call do not appear.
Tested on: nude mice, LX-1 lung xenograft intrarenal, tumor weight T/C
Test: NCI In Vivo Anticancer Drug Screen. Data for tumor model Human Lung LX-1 Xenograft (intrarenal inoculation) in NU/NU Swiss (nude) mice
Settings: endpoint: mean tumor weight change, higher = larger tumour
Method in brief: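 Activity was scored by measuring tumors in treated animals and in vehicle controls, then reporting the treated result as a fraction of the control result.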

[1] = dose: 150.0 mg/kg/injection, schedule: Q04DX003 (sc), vehicle: saline with Tween-80
[2] = dose: 300.0 mg/kg/injection, schedule: Q04DX003 (sc), vehicle: saline with Tween-80
[3] = dose: 600.0 mg/kg/injection, schedule: Q04DX003 (sc), vehicle: saline with Tween-80
[4] = dose: 1200.0 mg/kg/injection, schedule: Q04DX003 (sc), vehicle: saline with Tween-80
[5] = dose: 75.0 mg/kg/injection, schedule: Q04DX003 (sc), vehicle: saline
[6] = dose: 100.0 mg/kg/injection, schedule: Q01DX010 (sc), vehicle: Klucel (hydroxypropylcellulose) (HPC)
[7] = dose: 200.0 mg/kg/injection, schedule: Q01DX010 (sc), vehicle: Klucel (hydroxypropylcellulose) (HPC)
[8] = dose: 200.0 mg/kg/injection, schedule: Q04DX003 (sc), vehicle: saline with Tween-80
[9] = dose: 800.0 mg/kg/injection, schedule: Q04DX003 (sc), vehicle: saline with Tween-80
[10] = dose: 1600.0 mg/kg/injection, schedule: Q04DX003 (sc), vehicle: saline with Tween-80
[11] = dose: 75.0 mg/kg/injection, schedule: Q04DX003 (sc), vehicle: saline with Tween-80
[12] = dose: 150.0 mg/kg/injection, schedule: Q04DX003 (sc), vehicle: Klucel (hydroxypropylcellulose) (HPC)
[13] = dose: 300.0 mg/kg/injection, schedule: Q04DX003 (sc), vehicle: Klucel (hydroxypropylcellulose) (HPC)
[14] = dose: 1200.0 mg/kg/injection, schedule: Q04DX003 (sc), vehicle: Klucel (hydroxypropylcellulose) (HPC)

With `CN(C=O)C(C(=O)Nc1cccc2c(OC(=O)C(N(C)C=O)(N(C)C=O)N(C)C=O)c(N=Nc3ccc(S(=O)(=O)Nc4nccs4)cc3)cc(N=Nc3ccc(S(=O)(=O)Nc4nccs4)cc3)c12)(N(C)C=O)N(C)C=O` (tested in a mixture with another compound) the T/C [1] was 109 % of control, the T/C [2] was 71 % of control and the T/C [3] was 120 % of control. The T/C [4] was 95 % of control.

For `CNC=O`, the T/C (dose: 100.0 mg/kg/injection, schedule: Q01DX010 (sc), vehicle: saline) was 35 % of control, the T/C (dose: 200.0 mg/kg/injection, schedule: Q01DX010 (sc), vehicle: saline) was 7 % of control and 15 % of control and 21 % of control and the T/C (dose: 400.0 mg/kg/injection, schedule: Q01DX010 (sc), vehicle: saline) was 1 % of control and 2 % of control and 24 % of control. The T/C (dose: 1600.0 mg/kg/injection, schedule: Q01DX010 (sc), vehicle: saline) was 1 % of control.

For `CS(=O)(=O)OCCCNCCCOS(C)(=O)=O`, the T/C [5] was 71 % of control.

In the case of `CCC/C=C/C=C/C(=O)OC1/C(=C/C(=O)OC)CC2CC(C(C)O)OC(=O)CC(O)CC3CC(OC(C)=O)C(C)(C)C(O)(CC4C/C(=C/C(=O)OC)CC(/C=C/C(C)(C)C1(O)O2)O4)O3` (configuration not stated), the T/C (dose: 0.25 mg/kg/injection, schedule: Q04DX003 (sc), vehicle: saline + alcohol) was 112 % of control, the T/C (dose: 0.5 mg/kg/injection, schedule: Q04DX003 (sc), vehicle: saline + alcohol) was 96 % of control and the T/C (dose: 1.0 mg/kg/injection, schedule: Q04DX003 (ip), vehicle: saline + alcohol) was 96 % of control. The T/C (dose: 1.0 mg/kg/injection, schedule: Q04DX003 (sc), vehicle: saline + alcohol) was 59 % of control, the T/C (dose: 2.0 mg/kg/injection, schedule: Q04DX003 (ip), vehicle: saline + alcohol) was 119 % of control and the T/C (dose: 2.0 mg/kg/injection, schedule: Q04DX003 (sc), vehicle: saline + alcohol) was 27 % of control and 40 % of control. For the same compound, the T/C (dose: 4.0 mg/kg/injection, schedule: Q04DX003 (ip), vehicle: saline + alcohol) was 76 % of control, the T/C (dose: 8.0 mg/kg/injection, schedule: Q04DX003 (ip), vehicle: saline + alcohol) was 81 % of control and the T/C (dose: 8.0 mg/kg/injection, schedule: Q04DX003 (sc), vehicle: saline + alcohol) was 16 % of control. For the same compound, the T/C (dose: 10.0 mg/kg/injection, schedule: Q04DX003 (ip), vehicle: saline + alcohol) was 93 % of control.

In the case of `COc1cccc2c1C(=O)c1c(O)c3c(c(O)c1C2=O)C[C@@](O)(C(=O)CO)C[C@@H]3OC1CC(N)C(OC)C(C)O1` (some centres not stated), the T/C (dose: 0.75 mg/kg/injection, schedule: Q01DX010 (sc), vehicle: saline) was 29 % of control and the T/C (dose: 3.0 mg/kg/injection, schedule: Q01DX010 (sc), vehicle: saline) was 14 % of control.

For `Cc1ccc2c(ccc(CC(=S)[S-])[n+]2C)c1`, the T/C (dose: 50.0 mg/kg/injection, schedule: Q01DX010 (sc), vehicle: Klucel (hydroxypropylcellulose) (HPC)) was 56 % of control, the T/C [6] was 99 % of control and the T/C [7] was 207 % of control. The T/C (dose: 400.0 mg/kg/injection, schedule: Q01DX010 (sc), vehicle: Klucel (hydroxypropylcellulose) (HPC)) was 72 % of control.

`O=C1[C@H]2CCC[C@H]2[C@H]2CCC[C@@H]12` was tested, and the T/C [8] was 166 % of control, the T/C [9] was 120 % of control and the T/C [10] was 98 % of control.

For `O=C(O)C(O)C(O)C1[O][Sb][O]C1C(=O)O` (configuration not stated), the T/C (dose: 37.5 mg/kg/injection, schedule: Q04DX003 (sc), vehicle: saline) was 106 % of control and the T/C [5] was 105 % of control.

`CCN(CC)CC[n+]1ccc2c(C)c3[nH]c4ccc(O)cc4c3c(C)c2c1` was tested, and the T/C (dose: 25.0 mg/kg/injection, schedule: Q04DX003 (sc), vehicle: suspension in saline) was 172 % of control and the T/C (dose: 50.0 mg/kg/injection, schedule: Q04DX003 (sc), vehicle: suspension in saline) was 111 % of control.

With `COc1ccc([I+]c2cccc(Cl)c2)cc1Cl` the T/C [11] was 93 % of control, the T/C [1] was 86 % of control and the T/C [2] was 85 % of control. For the same compound, the T/C [3] was 74 % of control and the T/C [4] was 83 % of control.

`CNc1n[n+](-c2ccccc2)no1` was tested, and the T/C (dose: 37.5 mg/kg/injection, schedule: Q04DX003 (sc), vehicle: water) was 98 % of control and the T/C (dose: 75.0 mg/kg/injection, schedule: Q04DX003 (sc), vehicle: water) was 92 % of control.

For `O=[n+]1c2ccccc2n([O-])c2ccccc21.[Cl][Ni][Cl]`, the T/C (dose: 18.75 mg/kg/injection, schedule: Q04DX003 (sc), vehicle: saline with Tween-80) was 122 % of control, the T/C [11] was 150 % of control and 163 % of control and the T/C [1] was 226 % of control.

With `CCNC(=O)OCc1c(COC(=O)NCC)c(-c2ccc(Cl)c(Cl)c2)n2c1CCC2` the T/C (dose: 100.0 mg/kg/injection, schedule: Q01DX010 (sc), vehicle: saline with Tween-80) was 26 % of control and 31 % of control and the T/C (dose: 200.0 mg/kg/injection, schedule: Q01DX010 (sc), vehicle: saline with Tween-80) was 95 % of control.

`CCC[P+](c1ccccc1)(c1ccccc1)c1ccccc1` was tested, and the T/C (dose: 37.5 mg/kg/injection, schedule: Q04DX003 (sc), vehicle: saline with Tween-80) was 83 % of control, the T/C [11] was 79 % of control and the T/C [1] was 79 % of control.

`CC(=O)Oc1ccccc1O` was tested, and the T/C (dose: 150.0 mg/kg/injection, schedule: Q04DX003 (sc), vehicle: saline + Tween-80 + alcohol) was 105 % of control, the T/C (dose: 300.0 mg/kg/injection, schedule: Q04DX003 (sc), vehicle: saline + Tween-80 + alcohol) was 101 % of control and the T/C (dose: 600.0 mg/kg/injection, schedule: Q04DX003 (sc), vehicle: saline + Tween-80 + alcohol) was 89 % of control. The T/C (dose: 1200.0 mg/kg/injection, schedule: Q04DX003 (sc), vehicle: saline + Tween-80 + alcohol) was 82 % of control.

In the case of `Nc1ncnc2c1ncn2C1C=C(CO)C(O)C1O` (configuration not stated), the T/C (dose: 3.75 mg/kg/injection, schedule: Q04DX003 (sc), vehicle: saline) was 49 % of control, the T/C (dose: 7.5 mg/kg/injection, schedule: Q04DX003 (sc), vehicle: saline) was 70 % of control and the T/C (dose: 15.0 mg/kg/injection, schedule: Q04DX003 (sc), vehicle: saline) was 58 % of control.

With `Oc1c(Cl)cc(Cl)cc1C1N2CCCCC2C2c3cccn3-c3ccccc3N21` (configuration not stated) the T/C [12] was 65 % of control, the T/C [13] was 69 % of control and the T/C [14] was 74 % of control.

In the case of `C/C(=C\c1ccccc1)[N+](=O)[O-]`, the T/C (dose: 6.25 mg/kg/injection, schedule: Q01DX010 (sc), vehicle: Klucel (hydroxypropylcellulose) (HPC)) was 60 % of control, the T/C (dose: 12.5 mg/kg/injection, schedule: Q01DX010 (sc), vehicle: Klucel (hydroxypropylcellulose) (HPC)) was 56 % of control and the T/C [6] was 159 % of control. The T/C [7] was 196 % of control.

For `COc1cc2c(c(OC)c1OC)-c1c(cc3c(c1OC)OCO3)CC(C)C(C)(O)C2OC(=O)c1ccccc1` (configuration not stated), the T/C (dose: 300.0 mg/kg/injection, schedule: Q04DX003 (sc), vehicle: saline + alcohol) was 65 % of control, the T/C (dose: 600.0 mg/kg/injection, schedule: Q04DX003 (sc), vehicle: saline + alcohol) was 107 % of control and the T/C (dose: 1200.0 mg/kg/injection, schedule: Q04DX003 (sc), vehicle: saline + alcohol) was 108 % of control. For the same compound, the T/C (dose: 2400.0 mg/kg/injection, schedule: Q04DX003 (sc), vehicle: saline + alcohol) was 77 % of control.

For `CC1(c2ccc(Cl)cc2)OC(=O)C(=Cc2ccc([N+](=O)[O-])s2)C(=O)O1` (configuration not stated), the T/C [8] was 111 % of control, the T/C [9] was 80 % of control and the T/C [10] was 118 % of control.

For `CC(=O)C1(O)Cc2c(O)c3c(c(O)c2C(OC2CC(N)C(O)C(C)O2)C1)C(=O)c1ccccc1C3=O` (configuration not stated), the T/C (dose: 0.5 mg/kg/injection, schedule: Q04DX003 (sc), vehicle: water) was 120 % of control.

In the case of `Cc1cc(Nc2ccc3c(c2)OCO3)c2cc3c(cc2n1)OCO3`, the T/C [12] was 113 % of control, the T/C [13] was 155 % of control and the T/C [14] was 123 % of control.

Reference: PubChem BioAssay AID264 (DTP/NCI, 2004)
